In patent US20220313698A1, “MODULATORS OF CYSTIC FIBROSIS TRANSMEMBRANE CONDUCTANCE REGULATOR” (Vertex Pharmaceuticals Incorporated, priority 2019, published 2022):

Molecular target: CFTR-mediated chloride transport (Homo sapiens, UniProt P13569)
Test: Corrector Assay A - membrane potential dye assay (enteroid cells)
Conditions: for Corrector Assay A % activity: % of chloride transport of triple combination control (1 μM (14S)-dispiro macrocycle + 3 μM tezacaftor + 300 nM ivacaftor); for EC50: read-out: Corrector Assay A EC50, human intestinal enteroid cells, 18-24 h incubation, acute 10 μM forskolin + 300 nM ivacaftor
Description: Base medium (ADF+++) consisted of Advanced DMEM/Ham's F12, 2 mM Glutamax, 10 mM HEPES, 1 μg/ml penicillin/streptomycin.
Intestinal enteroid maintenance medium (IEMM) consisted of ADF+++, 1×B27 supplement, 1×N2 supplement, 1.25 mM N-acetyl cysteine, 10 mM Nicotinamide, 50 ng/mL hEGF, 10 nM Gastrin, 1 μg/mL hR-spondin-1, 100 ng/mL hNoggin, TGF-b type 1 inhibitor A-83-01, 100 μg/mL Primocin, 10 μM P38 MAPK inhibitor SB202190.
Bath 1 Buffer consisted of 1 mM MgCl2, 160 mM NaCl, 4.5 mM KCl, 10 mM HEPES, 10 mM Glucose, 2 mM CaCl2).
Chloride Free Buffer consisted of 1 mM Magnesium Gluconate, 2 mM Calcium Gluconate, 4.5 mM Potassium Gluconate, 160 mM Sodium Gluconate, 10 mM HEPES, 10 mM Glucose.
Bath 1 Dye Solution consisted of Bath 1 Buffer, 0.04% Pluronic F127, 20 μM Methyl Oxonol, 30 μM CaCCinh-A01, 30 μM Chicago Sky Blue.
Chloride Free Dye Solution consisted of Chloride Free Buffer, 0.04% Pluronic F127, 20 μM Methyl Oxonol, 30 μM CaCCinh-A01, 30 μM Chicago Sky Blue.
Chloride Free Dye Stimulation Solution consisted of Chloride Free Dye Solution, 10 μM forskolin, 100 μM IBMX, and 300 nM Ivacaftor.
Cells were recovered in cell recovery solution, collected by centrifugation at 650 rpm for 5 min at 4° C., resuspended in TryPLE and incubated for 5 min at 37° C. Cells were then collected by centrifugation at 650 rpm for 5 min at 4° C. and resuspended in IEMM containing 10 μM ROCK inhibitor (RI). The cell suspension was passed through a 40 μm cell strainer and resuspended at 1×10^6 cells/mL in IEMM containing 10 μM RI. Cells were seeded at 5000 cells/well into multi-well plates and incubated for overnight at 37° C., 95% humidity and 5% CO2 prior to assay.
Briefly, cells were washed 5 times in Bath 1 Buffer. Bath 1 Dye Solution was added and the cells were incubated for 25 min at room temperature. Following dye incubation, cells were washed 3 times in Chloride Free Dye Solution. Chloride transport was initiated by addition of Chloride Free Dye Stimulation Solution and the fluorescence signal was read for 15 min. The CFTR-mediated chloride transport for each condition was determined from the AUC of the fluorescence response to acute forskolin and 300 nM N-[2,4-bis(1,1-dimethylethyl)-5-hydroxyphenyl]-1,4-dihydro-4-oxoquinoline-3-carboxamide stimulation. Chloride transport was then expressed as a percentage of the chloride transport following treatment with 1 μM (14S)-8-[3-(2-{Dispiro[2.0.2.1]heptan-7-yl}ethoxy)-1H-pyrazol-1-yl]-12,12-dimethyl-2λ^6-thia-3,9,11,18,23-pentaazatetracyclo[17.3.1.111,14.05,10]tetracosa-1(22),5,7,9,19(23),20-hexaene-2,2,4-trione, 3 μM (R)-1-(2,2-difluorobenzo[d][1,3]dioxol-5-yl)-N-(1-(2,3-dihydroxypropyl)-6-fluoro-2-(1-hydroxy-2-methylpropan-2-yl)-1H-indol-5-yl)cyclopropanecarboxamide and 300 nM acute N-[2,4-bis(1,1-dimethylethyl)-5-hydroxyphenyl]-1,4-dihydro-4-oxoquinoline-3-carboxamide triple combination control (% Activity).

| Compound | Corrector Assay A % activity | EC50 [nM] |
| --- | --- | --- |
| CC(=O)NCc1ccc(C2CC[C@@H]3CN(c4nc(C(C)(C)C)ccc4C(=O)NS(=O)(=O)c4cccc(n4)N2)C(C)(C)C3)nc1 (stereo partly drawn) [Compound 71] | ++ (++ is 30-60%) | < 1000 |
| CC(C)(C)c1ccc2c(n1)N1C[C@@H](CC[C@H](c3cccc(-c4ccn[nH]4)n3)Nc3cccc(n3)S(=O)(=O)NC2=O)CC1(C)C [Compound 77] | ++ (++ is 30-60%) | < 1000 |
| CC(C)(C)c1ccc2c(n1)N1C[C@@H](CCC(c3ccc(CO)cn3)Nc3cccc(n3)S(=O)(=O)NC2=O)CC1(C)C (stereo partly drawn) [Compound 79, (14S)-8-tert-butyl-17-[5-(hydroxymethyl)pyridin-2-yl]-12,12-dimethyl-2λ^6-thia-3,9,11,18,23-pentaazatetracyclo[17.3.1.111,14.05,10]tetracosa-1(23),5(10),6,8,19,21-hexaene-2,2,4-trione] | +++ (+++ is >60%) | < 1000 |
| COC(=O)NCc1ccc(C2CC[C@@H]3CN(c4nc(C(C)(C)C)ccc4C(=O)NS(=O)(=O)c4cccc(n4)N2)C(C)(C)C3)nc1 (stereo partly drawn) [Compound 88] | +++ (+++ is >60%) | < 1000 |
| COC(=O)NCc1ccc(C2CC[C@@H]3CN(c4nc(C(C)(C)C)ccc4C(=O)NS(=O)(=O)c4cccc(n4)N2)C(C)(C)C3)nc1 (stereo partly drawn) [Compound 89, Methyl N-({6-[(14S)-8-tert-butyl-12,12-dimethyl-2,2,4-trioxo-2λ^6-thia-3,9,11,18,23-pentaazatetracyclo[17.3.1.111,14.05,10]tetracosa-1(23),5(10),6,8,19,21-hexaen-17-yl]pyridin-3-yl}methyl)carbamate] | ++ (++ is 30-60%) | < 1000 |
| COC(=O)CCc1ccc(C2CC[C@@H]3CN(c4nc(C(C)(C)C)ccc4C(=O)NS(=O)(=O)c4cccc(n4)N2)C(C)(C)C3)nc1 (stereo partly drawn) [Compound 90] | ++ (++ is 30-60%) | < 1000 |
| COC(=O)CCc1ccc(C2CC[C@@H]3CN(c4nc(C(C)(C)C)ccc4C(=O)NS(=O)(=O)c4cccc(n4)N2)C(C)(C)C3)nc1 (stereo partly drawn) [Compound 91, methyl 3-{6-[(14S)-8-tert-butyl-12,12-dimethyl-2,2,4-trioxo-2λ^6-thia-3,9,11,18,23-pentaazatetracyclo[17.3.1.111,14.05,10]tetracosa-1(23),5(10),6,8,19,21-hexaen-17-yl]pyridin-3-yl}propanoate] | ++ (++ is 30-60%) | > 3000 |
| COC(=O)N1CCC(c2ccnc(C3CC[C@@H]4CN(c5nc(C(C)(C)C)ccc5C(=O)NS(=O)(=O)c5cccc(n5)N3)C(C)(C)C4)c2)CC1 (stereo partly drawn) [Compound 96, methyl 4-{2-[(14S)-8-tert-butyl-12,12-dimethyl-2,2,4-trioxo-2λ^6-thia-3,9,11,18,23-pentaazatetracyclo[17.3.1.111,14.05,10]tetracosa-1(23),5(10),6,8,19,21-hexaen-17-yl]pyridin-4-yl}piperidine-1-carboxylate] | +++ (+++ is >60%) | < 1000 |
| CC(=O)NCc1cccc([C@H]2CC[C@@H]3CN(c4nc(C(C)(C)C)ccc4C(=O)NS(=O)(=O)c4cccc(n4)N2)C(C)(C)C3)n1 [Compound 100, N-({6-[(14S,17R)-8-tert-Butyl-12,12-dimethyl-2,2,4-trioxo-2λ^6-thia-3,9,11,18,23-pentaazatetracyclo[17.3.1.111,14.05,10]tetracosa-1(22),5,7,9,19(23),20-hexaen-17-yl]pyridin-2-yl}methyl)acetamide] | +++ (+++ is >60%) | < 1000 |
| CN(C)Cc1ccc(C2CC[C@@H]3CN(c4nc(C(C)(C)C)ccc4C(=O)NS(=O)(=O)c4cccc(n4)N2)C(C)(C)C3)nc1 (stereo partly drawn) [Compound 103] | ++ (++ is 30-60%) | < 1000 |
| CC(C)(C)c1ccc2c(n1)N1C[C@@H](CC[C@H](c3cccc(CCN)n3)Nc3cccc(n3)S(=O)(=O)NC2=O)CC1(C)C [Compound 104] | ++ (++ is 30-60%) | < 1000 |
| CC(C)(C)CCc1ccc2c(n1)N1C[C@@H](CC[C@H](c3ccccn3)Nc3cccc(n3)S(=O)(=O)NC2=O)CC1(C)C [Compound 105, (14S,17R)-8-(3,3-dimethylbutyl)-12,12-dimethyl-17-(pyridin-2-yl)-2λ^6-thia-3,9,11,18,23-pentaazatetracyclo[17.3.1.111,14.05,10]tetracosa-1(22),5,7,9,19(23),20-hexaene-2,2,4-trione] | +++ (+++ is >60%) | < 1000 |
| CC(C)(C)/C=C/c1ccc2c(n1)N1C[C@@H](CC[C@H](c3ccccn3)Nc3cccc(n3)S(=O)(=O)NC2=O)CC1(C)C [Compound 106, (14S,17R)-8-[(1E)-3,3-dimethylbut-1-en-1-yl]-12,12-dimethyl-17-(pyridin-2-yl)-2λ^6-thia-3,9,11,18,23-pentaazatetracyclo[17.3.1.111,14.05,10]tetracosa-1(22),5,7,9,19(23),20-hexaene-2,2,4-trione] | +++ (+++ is >60%) | < 1000 |
| COCCc1ccc(C2CC[C@@H]3CN(c4nc(C(C)(C)C)ccc4C(=O)NS(=O)(=O)c4cccc(n4)N2)C(C)(C)C3)nc1 (stereo partly drawn) [Compound 112] | ++ (++ is 30-60%) | < 1000 |
| CC(C)(C)c1ccc2c(n1)N1C[C@@H](CCC(c3ccc(CCN)cn3)Nc3cccc(n3)S(=O)(=O)NC2=O)CC1(C)C (stereo partly drawn) [Compound 113] | ++ (++ is 30-60%) | < 1000 |
| CC(C)(C)OC(=O)N1CCC(c2ccnc(C3CC[C@@H]4CN(c5nc(C(C)(C)C)ccc5C(=O)NS(=O)(=O)c5cccc(n5)N3)C(C)(C)C4)c2)CC1 (stereo partly drawn) [Compound 118, tert-butyl 4-{2-[(14S)-8-tert-butyl-12,12-dimethyl-2,2,4-trioxo-2λ^6-thia-3,9,11,18,23-pentaazatetracyclo[17.3.1.111,14.05,10]tetracosa-1(23),5(10),6,8,19,21-hexaen-17-yl]pyridin-4-yl}piperidine-1-carboxylate] | ++ (++ is 30-60%) | < 1000 |

More lines, now with the values ahead:

| Corrector Assay A % activity | EC50 [nM] | Compound |
| --- | --- | --- |
| ++ (++ is 30-60%) | < 1000 | CC(=O)NCc1ccc(C2CC[C@@H]3CN(c4nc(C(C)(C)C)ccc4C(=O)NS(=O)(=O)c4cccc(n4)N2)C(C)(C)C3)nc1 (stereo partly drawn) [Compound 72, N-({6-[(14S)-8-tert-Butyl-12,12-dimethyl-2,2,4-trioxo-2λ^6-thia-3,9,11,18,23-pentaazatetracyclo[17.3.1.111,14.05,10]tetracosa-1(23),5(10),6,8,19,21-hexaen-17-yl]pyridin-3-yl}methyl)acetamide] |
| +++ (+++ is >60%) | < 1000 | CC(C)(C)c1ccc2c(n1)N1C[C@@H](CCC(c3ccc(CO)cn3)Nc3cccc(n3)S(=O)(=O)NC2=O)CC1(C)C (stereo partly drawn) [Compound 78] |
| ++ (++ is 30-60%) | 1000 to 3000 | CC(C)(C)c1ccc2c(n1)N1C[C@@H](CCC(c3ccc(CCC(=O)O)cn3)Nc3cccc(n3)S(=O)(=O)NC2=O)CC1(C)C (stereo partly drawn) [Compound 97] |
| + (+ is <30%) | 1000 to 3000 | CC(C)(C)c1ccc2c(n1)N1C[C@@H](CCC(c3ccc(CCC(=O)O)cn3)Nc3cccc(n3)S(=O)(=O)NC2=O)CC1(C)C (stereo partly drawn) [Compound 98, 3-{6-[(14S)-8-tert-Butyl-12,12-dimethyl-2,2,4-trioxo-2λ^6-thia-3,9,11,18,23-pentaazatetracyclo[17.3.1.111,14.05,10]tetracosa-1(23),5(10),6,8,19,21-hexaen-17-yl]pyridin-3-yl}propanoic acid] |
| ++ (++ is 30-60%) | < 1000 | CN(C)Cc1cccc([C@H]2CC[C@@H]3CN(c4nc(C(C)(C)C)ccc4C(=O)NS(=O)(=O)c4cccc(n4)N2)C(C)(C)C3)n1 [Compound 99] |
| ++ (++ is 30-60%) | < 1000 | COC(=O)NCc1cccc([C@H]2CC[C@@H]3CN(c4nc(C(C)(C)C)ccc4C(=O)NS(=O)(=O)c4cccc(n4)N2)C(C)(C)C3)n1 [Compound 101, Methyl N-({6-[(14S,17R)-8-tert-butyl-12,12-dimethyl-2,2,4-trioxo-2λ^6-thia-3,9,11,18,23-pentaazatetracyclo[17.3.1.111,14.05,10]tetracosa-1(22),5,7,9,19(23),20-hexaen-17-yl]pyridin-2-yl}methyl)carbamate] |
| +++ (+++ is >60%) | < 1000 | CN(C)Cc1ccc(C2CC[C@@H]3CN(c4nc(C(C)(C)C)ccc4C(=O)NS(=O)(=O)c4cccc(n4)N2)C(C)(C)C3)nc1 (stereo partly drawn) [Compound 102] |
| ++ (++ is 30-60%) | < 1000 | COCCc1ccc(C2CC[C@@H]3CN(c4nc(C(C)(C)C)ccc4C(=O)NS(=O)(=O)c4cccc(n4)N2)C(C)(C)C3)nc1 (stereo partly drawn) [Compound 111] |
| ++ (++ is 30-60%) | < 1000 | CC(C)(C)c1ccc2c(n1)N1C[C@@H](CCC(c3ccc(CCN)cn3)Nc3cccc(n3)S(=O)(=O)NC2=O)CC1(C)C (stereo partly drawn) [Compound 114] |
| +++ (+++ is >60%) | < 1000 | CC(C)(C)OC(=O)N1CCC(c2ccnc(C3CC[C@@H]4CN(c5nc(C(C)(C)C)ccc5C(=O)NS(=O)(=O)c5cccc(n5)N3)C(C)(C)C4)c2)CC1 (stereo partly drawn) [Compound 117, tert-butyl 4-{2-[(14S)-8-tert-butyl-12,12-dimethyl-2,2,4-trioxo-2λ^6-thia-3,9,11,18,23-pentaazatetracyclo[17.3.1.111,14.05,10]tetracosa-1(23),5(10),6,8,19,21-hexaen-17-yl]pyridin-4-yl}piperidine-1-carboxylate] |
| +++ (+++ is >60%) | < 1000 | CC(C)(C)c1ccc2c(n1)N1C[C@@H](CCC(c3cc(C4CCNCC4)ccn3)Nc3cccc(n3)S(=O)(=O)NC2=O)CC1(C)C (stereo partly drawn) [Compound 123] |
